Source: US9327005B1, “Compositions and methods for improved energy metabolism” (VDF FutureCeuticals, Inc., priority 2012, dated 2016)

Test system: freshly isolated human peripheral blood cells
Assay: Seahorse oxygen consumption rate (OCR)
Assay type: cell-based
Conditions: average
Experimental: Testing was performed using Seahorse technology in order to measure real-time changes in oxygen consumption by freshly isolated human peripheral blood cells.
All results were generated on freshly isolated blood cells from different and randomly selected healthy and fasted donors. […] These two values were used as positive and negative controls, respectively, in order to ensure quality of test, viability and metabolic functionality of fresh human blood cells. Oligomycin inhibits oxygen metabolism. In presence of this substance, cells generate ATP/energy mainly via glycolysis. […] To ensure quality of human blood cells, blood was collected directly into Cell Preparation Tube with Sodium Citrate, Becton Dickinson Inc. Peripheral blood cells were isolated during 45 minutes following Protocol provided by Becton Dickinson. Blood cells were cultivated during each experiment in Seahorse media supplemented with 5 mM of glucose. Glucose concentration was adjusted from 11 mM to 5 mM to avoid testing of samples under hyperglycemic conditions (typically glucose at concentration lower than 95 mg/dl).
Cells were isolated from healthy fasted subject, and treated with apple extract at indicated dose. […] Rate 7, 8 and 14 represent time-points: 4, 8 and 32 minutes after the treatment, respectively.

SMILES	inhibition of OCR (negative control)	increase in OCR (positive control)
CC[C@H]1/C=C/C=C/C[C@@H](C)[C@H](O)[C@@](C)(O)C(=O)[C@@H](C)[C@H](O)[C@@H](C)C(=O)[C@@H](C)[C@H](O)[C@@H](C)/C=C/C(=O)O[C@@H]2[C@H](C)[C@H](CC1)O[C@]1(CC[C@H](C)[C@H](C[C@@H](C)O)O1)[C@H]2C [oligomycin]	86%	
N#CC(C#N)=NNc1ccc(OC(F)(F)F)cc1 [FCCP]		397%
